Experimental findings from patent publication US8314253B2, “Bridged tetrahydronaphthalene derivatives” (Actelion Pharmaceuticals Ltd., priority 2008, dated 2012) are described below.

The experiment concerns human Cav3.1 Cav3.2 or Cav3.3 channel. The experiment in a line: In vitro assay T channel (FLIPR, Ca2+-induced fluorescence). Type of experiment: cell-based. To be noted: HEK293 cells expressing human Cav3.1 Cav3.2 or Cav3.3; 10 mM Ca2+; determined up to 10 μM; read-out: T channel antagonistic activity IC50. Here is the method:
Human embryonic kidney (HEK293) cells expressing the human Cav3.1 Cav3.2 or Cav3.3 channel, respectively, are grown in culture medium (DMEM containing 10% heat-inactivated fetal calf serum (FCS), 100 U/ml penicillin, 100 μg/ml streptomycin and 1 mg/ml G418). The cells are seeded at 20.000 cells/well into 384-well black clear bottom sterile plates (poly-L-lysine-coated, Becton Dickinson). The seeded plates are incubated overnight at 37° C. in 5% CO2. The Ca^2+ solution is prepared as 100 mM stock solution in 100 mM tetraethylammoniumchloride (TEA-chloride), 50 mM HEPES, 2.5 mM CaCl2, 5 mM KCl, 1 mM MgCl2, adjusted to pH 7.2 with TEA-hydroxide, for use in the assay at a final concentration of 10 mM. […] Fluorescence is measured for each well at 2 second intervals for 8 minutes, and the area under the curve of each fluorescence peak is compared to the area of the fluorescence peak induced by 10 mM Ca^2+ with vehicle in place of antagonist.

For `CN(CCCc1nc2ccccc2[nH]1)CC[C@]1(O)C[C@H]2CC[C@@H]1c1ccccc12` (relative stereo) [Example 1, rac-(1R*,8R*,9R*)-9-(2-{[3-(1H-Benzoimidazol-2-yl)-propyl]-methyl-amino}-ethyl)-tricyclo[6.2.2.0^2,7]dodeca-2,4,6-trien-9-ol], the IC50 was 2850 nM.

Regarding `COCC(=O)O[C@@]1(CCN(C)CCCc2nc3ccccc3[nH]2)C[C@H]2CC[C@@H]1c1ccccc12` (relative stereo) [Example 1A, rac-Methoxy-acetic acid (1R*,8R*,9R*)-9-(2-{[3-(1H-benzoimidazol-2-yl)-propyl]-methyl-amino}-ethyl)-tricyclo[6.2.2.0^2,7]dodeca-2,4,6-trien-9-yl ester], the IC50 worked out at 1530 nM.

As to `CN(CCCc1nc2ccccc2[nH]1)CC[C@]1(OC(=O)C2CC2)C[C@H]2CC[C@@H]1c1ccccc12` (relative stereo) [Example 1C, rac-Cyclopropanecarboxylic acid (1R*,8R*,9R*)-9-(2-{[3-(1H-benzoimidazol-2-yl)-propyl]-methyl-amino}-ethyl)-tricyclo[6.2.2.0^2,7]dodeca-2,4,6-trien-9-yl ester], the IC50 amounted to 969 nM.

As to `CO[C@@]1(CCN(C)CCCc2nc3ccccc3[nH]2)C[C@H]2CC[C@@H]1c1ccccc12` (relative stereo) [Example 4, rac-(1R*,8R*,9R*)-[3-(1H-Benzoimidazol-2-yl)-propyl]-[2-(9-methoxy-tricyclo[6.2.2.0^2,7]dodeca-2,4,6-trien-9-yl)-ethyl]-methyl-amine], the IC50 came out at 1220 nM.

Turning to `CN(CCCc1nc2ccccc2[nH]1)CC[C@@]1(O)C[C@H]2CC[C@@H]1c1ccccc12` (relative stereo) [Example 5, rac-(1R*,8R*,9S*)-9-(2-{[3-(1H-Benzoimidazol-2-yl)-propyl]-methyl-amino}-ethyl)-tricyclo[6.2.2.0^2,7]dodeca-2,4,6-trien-9-ol], the IC50 was over 10000 nM.

As for `CC(C)C(=O)O[C@]1(CCN(C)CCCc2nc3ccccc3[nH]2)C[C@H]2CC[C@@H]1c1ccccc12` (relative stereo) [Example 5A, rac-Isobutyric acid (1R*,8R*,9S*)-9-(2-{[3-(1H-benzoimidazol-2-yl)-propyl]-methyl-amino}-ethyl)-tricyclo[6.2.2.0^2,7]dodeca-2,4,6-trien-9-yl ester], the IC50 came out at 5180 nM.

For the compound `O[C@@]1(CCN2CCC(c3nc4ccccc4[nH]3)CC2)C[C@H]2CC[C@@H]1c1ccccc12` (relative stereo) [Example 6, rac-(1R*,8R*,9R*)-9-{2-[4-(1H-Benzoimidazol-2-yl)-piperidin-1-yl]-ethyl}-tricyclo[6.2.2.0^2,7]dodeca-2,4,6-trien-9-ol], the IC50 came to 1360 nM.

Regarding `CC(C)C(=O)O[C@@]1(CCN2CCC(c3nc4ccccc4[nH]3)CC2)C[C@H]2CC[C@@H]1c1ccccc12` (relative stereo) [Example 6A, rac-Isobutyric acid (1R*,8R*,9R*)-9-{2-[4-(1H-benzoimidazol-2-yl)-piperidin-1-yl]-ethyl}-tricyclo[6.2.2.0^2,7]dodeca-2,4,6-trien-9-yl ester], the half-maximal inhibitory concentration (IC50) stood at 751 nM.

As to `O[C@@]1(CCN2CCCC(c3nc4ccccc4[nH]3)C2)C[C@H]2CC[C@@H]1c1ccccc12` (relative stereo) [Example 7, (1R*,8R*,9R*)-9-{2-[(3RS)-3-(1H-Benzoimidazol-2-yl)-piperidin-1-yl]-ethyl}-tricyclo[6.2.2.0^2,7]dodeca-2,4,6-trien-9-ol], the IC50 worked out at 2260 nM.

Take `CC(C)C(=O)O[C@@]1(CCN2CCCC(c3nc4ccccc4[nH]3)C2)C[C@H]2CC[C@@H]1c1ccccc12` (relative stereo) [Example 7A, Isobutyric acid (1R*,8R*,9R*)-9-{2-[(3RS)-3-(1H-benzoimidazol-2-yl)-piperidin-1-yl]-ethyl}-tricyclo[6.2.2.0^2,7]dodeca-2,4,6-trien-9-yl ester]: the IC50 was 1110 nM.

In the case of `O[C@@]1(CCN2CCC(c3ccccc3)(c3nc4ccccc4[nH]3)CC2)C[C@H]2CC[C@@H]1c1ccccc12` (relative stereo) [Example 8, rac-(1R*,8R*,9R*)-9-{2-[4-(1H-Benzoimidazol-2-yl)-4-phenyl-piperidin-1-yl]-ethyl}-tricyclo[6.2.2.0^2,7]dodeca-2,4,6-trien-9-ol], the IC50 amounted to 953 nM.

Turning to `CC(C)C(=O)O[C@@]1(CCN2CCC(c3ccccc3)(c3nc4ccccc4[nH]3)CC2)C[C@H]2CC[C@@H]1c1ccccc12` (relative stereo) [Example 8A, rac-Isobutyric acid (1R*,8R*,9R*)-9-{2-[4-(1H-benzoimidazol-2-yl)-4-phenyl-piperidin-1-yl]-ethyl}-tricyclo[6.2.2.0^2,7]dodeca-2,4,6-trien-9-yl ester], the IC50 is 6100 nM.

Take `CN(CCCc1nc2ccccc2[nH]1)CC[C@]1(O)C[C@H]2CC[C@@H]1c1cc(F)c(F)cc12` (relative stereo) [Example 9, rac-(1R*,8R*,9R*)-9-(2-{[3-(1H-Benzoimidazol-2-yl)-propyl]-methyl-amino}-ethyl)-4,5-difluoro-tricyclo[6.2.2.0^2,7]dodeca-2,4,6-trien-9-ol]: the IC50 worked out at 1850 nM.

In the case of `CN(CCCc1nc2ccccc2[nH]1)CC[C@]1(O)C[C@H]2CCC[C@@H]1c1ccccc12` (relative stereo) [Example 10, rac-(1R*,8R*,12R*)-12-(2-{[3-(1H-Benzoimidazol-2-yl)-propyl]-methyl-amino}-ethyl)-tricyclo[6.3.2.0^2,7]trideca-2,4,6-trien-12-ol], the IC50 was determined as 1580 nM.

With `COCC(=O)O[C@@]1(CCN(C)CCCc2nc3ccccc3[nH]2)C[C@H]2CCC[C@@H]1c1ccccc12` (relative stereo) [Example 10A, rac-Methoxy-acetic acid (1R*,8R*,12R*)-12-(2-{[3-(1H-benzoimidazol-2-yl)-propyl]-methyl-amino}-ethyl)-tricyclo[6.3.2.0^2,7]trideca-2,4,6-trien-12-yl ester], the IC50 was determined as 814 nM.

For the compound `CC(C)C(=O)O[C@@]1(CCN(C)CCCc2nc3ccccc3[nH]2)C[C@H]2CCC[C@@H]1c1ccccc12` (relative stereo) [Example 10B, rac-Isobutyric acid (1R*,8R*,12R*)-12-(2-{[3-(1H-benzoimidazol-2-yl)-propyl]-methyl-amino}-ethyl)-tricyclo[6.3.2.0^2,7]trideca-2,4,6-trien-12-yl ester], the IC50 was 1310 nM.

Take `CN(CCCc1nc2ccccc2[nH]1)CCC1(O)CC2CCC1c1ccccc12` (single isomer, unassigned) [Example 2, (1S,8S,9S)-9-(2-{[3-(1H-Benzoimidazol-2-yl)-propyl]-methyl-amino}-ethyl)-tricyclo[6.2.2.0^2,7]dodeca-2,4,6-trien-9-ol or (1R,8R,9R)-9-(2-{[3-(1H-benzoimidazol-2-yl)-propyl]-methyl-amino}-ethyl)-tricyclo[6.2.2.0^2,7]dodeca-2,4,6-trien-9-ol]: the IC50 turned out to be 2900 nM.

Consider `CN(CCCc1nc2ccccc2[nH]1)CCC1(O)CC2CCC1c1ccccc12` (single isomer, unassigned) [Example 3, (1S,8S,9S)-9-(2-{[3-(1H-Benzoimidazol-2-yl)-propyl]-methyl-amino}-ethyl)-tricyclo[6.2.2.0^2,7]dodeca-2,4,6-trien-9-ol or (1R,8R,9R)-9-(2-{[3-(1H-benzoimidazol-2-yl)-propyl]-methyl-amino}-ethyl)-tricyclo[6.2.2.0^2,7]dodeca-2,4,6-trien-9-ol], for which the IC50 was determined as 2250 nM.

With `CN(CCCc1nc2ccccc2[nH]1)CCC1(O)CC2CCCC1c1ccccc12` (single isomer, unassigned) [Example 11, (1S,8S,12S)-12-(2-{[3-(1H-Benzoimidazol-2-yl)-propyl]-methyl-amino}-ethyl)-tricyclo[6.3.2.0^2,7]trideca-2,4,6-trien-12-ol or (1R,8R,12R)-12-(2-{[3-(1H-benzoimidazol-2-yl)-propyl]-methyl-amino}-ethyl)-tricyclo[6.3.2.0^2,7]trideca-2,4,6-trien-12-ol], the IC50 was 521 nM.

Turning to `CN(CCCc1nc2ccccc2[nH]1)CCC1(O)CC2CCCC1c1ccccc12` (single isomer, unassigned) [Example 12, (1S,8S,12S)-12-(2-{[3-(1H-Benzoimidazol-2-yl)-propyl]-methyl-amino}-ethyl)-tricyclo[6.3.2.0^2,7]trideca-2,4,6-trien-12-ol or (1R,8R,12R)-12-(2-{[3-(1H-benzoimidazol-2-yl)-propyl]-methyl-amino}-ethyl)-tricyclo[6.3.2.0^2,7]trideca-2,4,6-trien-12-ol], the IC50 is 631 nM.

For the compound `COc1cccc2[nH]c(CCCN(C)CCC3(O)CC4CCCC3c3ccccc34)nc12` (single isomer, unassigned) [Example 13, (1S,8S,12S)-12-(2-{[3-(4-Methoxy-1H-benzoimidazol-2-yl)-propyl]-methyl-amino}-ethyl)-tricyclo[6.3.2.0^2,7]trideca-2,4,6-trien-12-ol or (1R,8R,12R)-12-(2-{[3-(4-methoxy-1H-benzoimidazol-2-yl)-propyl]-methyl-amino}-ethyl)-tricyclo[6.3.2.0^2,7]trideca-2,4,6-trien-12-ol], the IC50 is 1220 nM.

A word on the IC50: it is the point on the concentration scale where inhibition reaches its midpoint.
